According to patent US10226451B2, “Substituted bicyclic compounds as bromodomain inhibitors” (ZENITH EPIGENETICS LTD, priority 2013, dated 2019):

Tests used:
[1] = system: Human AML MV-4-11 cells; assay: Inhibition of cell proliferation in MV4-11 cells (CellTiter Aqueous One); format: cell-based; conditions: 72 h
Method: In this example, cell titer in MV4-11 cells were quantitated to measure the inhibition of proliferation when treated with a compound of the present disclosure.
MV4-11 cells (CRL-9591) were plated at a density of 5×10^4 cells per well in 96 well flat bottom plates and treated with increasing concentrations of test compound or DMSO (0.1%) in IMDM media containing 10% FBS and penicillin/streptomycin. Triplicate wells were used for each concentration and a well containing only media was used as a control. Plates were incubated at 37° C., 5% CO2 for 72 h before adding 20 μL of the CellTiter Aqueous One Solution (Promega) to each well and incubated at 37° C., 5% CO2 for an additional 3-4 h. The absorbance was read at 490 nm in a spectrophotometer and the percentage of cell titer relative to DMSO-treated cells was calculated after correcting for background by subtracting the blank well's signal. IC50 values were calculated using the Graph Pad Prism software.

[2] = system: hIL-17 mRNA in human peripheral blood mononuclear cells; assay: Inhibition of hIL-17 mRNA transcription in OKT3-stimulated PBMC; format: cell-based; conditions: OKT3 antibody, 6 h, read-out: IL-17 activity
Method: In this example, hIL-17 mRNA in human peripheral blood mononuclear cells were quantitated to measure the transcriptional inhibition of hIL-17 when treated with a compound of the present disclosure.
Human peripheral blood mononuclear cells were plated (2.0×10^5 cells per well) in a 96-well plate in 45 μL OpTimizer T Cell expansion media (Life Technologies) containing 20 ng/ml IL-2 and penicillin/streptomycin. The cells were treated with increasing concentrations of the test compound or DMSO (0.1%), and incubated at 37° C., 5% CO2 for 1 h before addition of 10× stock OKT3 antibody at 10 ug/ml in media. Triplicate wells were used for each concentration. Cells were incubated at 37° C., 5% CO2 for 6 h before the cells were harvested. At time of harvest, cells were pelleted by centrifugation at 800 rpm for 5 min. Cells were harvested using the mRNA Catcher PLUS kit according to manufacturer's instructions. The eluted mRNA was then used in a one-step quantitative real-time PCR reaction, using components of the RNA UltraSense™ One-Step Kit (Life Technologies) together with Applied Biosystems TaqMan® primer-probes for hIL-17 and Cyclophilin. Real-time PCR plates were run on a ViiA™7 real time PCR machine (Applied Biosystems), data was analyzed, normalizing the Ct values for hIL-17 to an internal control, prior to determining the fold induction of each unknown sample, relative to the control.

[3] = biological target: T1, Brd4 bromodomain 1 (BRD4(1)) (Homo sapiens, UniProt O60885); assay: Inhibition of tetra-acetylated histone H4 binding to Brd4 bromodomain 1 (HTRF/FRET); conditions: tetra-acetylated histone H4 peptide, His-tagged bromodomain 200 nM, 2 h
T1 construct: made in house; host or cells: E. coli BL21(DE3)
Method: Proteins were cloned and overexpressed with a N-terminal 6×His tag, then purified by nickel affinity followed by size exclusion chromatography. Briefly, E. coli BL21(DE3) cells were transformed with a recombinant expression vector encoding N-terminally Nickel affinity tagged bromodomains from Brd2, Brd3, Brd4. Cell cultures were incubated at 37° C. with shaking to the appropriate density and induced overnight with IPTG. The supernatant of lysed cells was loaded onto Ni-IDA column for purification. Eluted protein was pooled, concentrated and further purified by size exclusion chromatography. Fractions representing monomeric protein were pooled, concentrated, aliquoted, and frozen at −80° C. for use in subsequent experiments.
Binding of tetra-acetylated histone H4 and BET bromodomains was confirmed by a Homogenous Time Resolved Fluorescence Resonance Energy Transfer (HTRF®) method. N-terminally His-tagged bromodomains (200 nM) and biotinylated tetra-acetylated histone H4 peptide (25-50 nM, Millipore) were incubated in the presence of Europium Cryptate-labeled streptavidin (Cisbio Cat. #610SAKLB) and XL665-labeled monoclonal anti-His antibody (Cisbio Cat. #61HISXLB) in a white 96 well microtiter plate (Greiner). For inhibition assays, serially diluted test compound was added to these reactions in a 0.2% final concentration of DMSO. Duplicate wells were used for each concentration tested. Final buffer concentrations were 30 mM HEPES pH 7.4, 30 mM NaCl, 0.3 mM CHAPS, 20 mM phosphate pH 7.0, 320 mM KF, 0.08% BSA. After a 2 h incubation at room temperature, fluorescence was measured at 665 and 620 nm with a SynergyH4 plate reader (Biotek). The binding inhibitory activity was shown by a decrease in 665 nm relative to 620 nm fluorescence. IC50 values were determined from a dose response curve.

[4] = system: hIL-6 mRNA in U937 cells; assay: Inhibition of hIL-6 mRNA transcription in LPS-stimulated U937 cells; format: cell-based; conditions: Homo sapiens, U-937, PMA-differentiated U937 cells, LPS 1 ug/mL, 3 h, read-out: IL-6 activity
Method: In this example, hIL-6 mRNA in tissue culture cells were quantitated to measure the transcriptional inhibition of hIL-6 when treated with a compound of the present disclosure.
Human leukemic monocyte lymphoma U937 cells (CRL-1593.2) were plated at a density of 3.2×10^4 cells per well in a 96-well plate in 100 μL RPMI-1640 containing 10% FBS and penicillin/streptomycin, and differentiated into macrophages for 3 days in 60 ng/mL PMA ([…]) at 37° C. in 5% CO2 prior to the addition of compound. The cells were pretreated for 1 h with increasing concentrations of test compound in 0.1% DMSO prior to stimulation with 1 ug/mL lipopolysaccharide from Escherichia coli. Triplicate wells were used for each concentration. The cells were incubated at 37° C., 5% CO2 for 3 h before the cells were harvested. At time of harvest, media was removed and cells were rinsed in 200 μL PBS. Cells were harvested using the mRNA Catcher PLUS kit according to manufacturer's instructions. The eluted mRNA was then used in a one-step quantitative real-time PCR reaction using components of the RNA UltraSense™ One-Step Kit (Life Technologies) together with Applied Biosystems TaqMan® primer-probes for hIL-6 and Cyclophilin. Real-time PCR plates were run on a ViiA™7 real time PCR machine (Applied Biosystems), data was analyzed, normalizing the Ct values for hIL-6 to an internal control, prior to determining the fold expression of each sample, relative to the control.

[5] = system: c-myc in Human AML MV4-11 cells; assay: Inhibition of c-MYC expression (mRNA, real-time PCR) in MV4-11 cells; format: cell-based; conditions: 3 h, mRNA by real-time PCR
Method: MV4-11 cells (CRL-9591) were plated at a density of 2.5×10^4 cells per well in 96 well U-bottom plates and treated with increasing concentrations of test compound or DMSO (0.1%) in IMDM media containing 10% FBS and penicillin/streptomycin, and incubated for 3 h at 37° C. Triplicate wells were used for each concentration. Cells were pelleted by centrifugation and harvested using the mRNA Catcher PLUS kit according to manufacturer's instructions. The eluted mRNA isolated was then used in a one-step quantitative real-time PCR reaction, using components of the RNA UltraSense™ One-Step Kit (Life Technologies) together with Applied Biosystems TaqMan® primer-probes for cMYC and Cyclophilin. Real-time PCR plates were run on a ViiA™7 real time PCR machine (Applied Biosystems), data was analyzed, normalizing the Ct values for hMYC to an internal control, prior to determining the fold expression of each sample, relative to the control.

| SMILES | IC50 [1] [nM] | IC50 [2] [nM] | IC50 [3] [nM] | IC50 [4] [nM] | IC50 [5] [nM] |
| --- | --- | --- | --- | --- | --- |
| Cc1noc(C)c1-c1cc(-c2c(C)noc2C)c2c(c1)[nH]c(=O)n2C [Example Compound 2, 5,7-bis(3,5-dimethylisoxazol-4-yl)-1-methyl-1H-benzo[d]imidazol-2(3H)-one] | 300 to 3000 | ≤ 300 | ≤ 300 | ≤ 300 | ≤ 300 |
| Cc1noc(C)c1-c1cc(-c2ccccc2C(F)(F)F)c2c(c1)[nH]c(=O)n2C [Example Compound 5, 5-(3,5-dimethylisoxazol-4-yl)-1-methyl-7-(2-(trifluoromethyl)phenyl)-1H-benzo[d]imidazol-2(3H)-one] | ≤ 300 | 300 to 3000 | ≤ 300 | ≤ 300 | ≤ 300 |
| Cc1nn(C)c(C)c1Nc1cc(-c2c(C)noc2C)cc2[nH]c(=O)n(C)c12 [Example Compound 26, 5-(3,5-dimethylisoxazol-4-yl)-1-methyl-7-((1,3,5-trimethyl-1H-pyrazol-4-yl)amino)-1H-benzo[d]imidazol-2(3H)-one] | 300 to 3000 | – | ≤ 300 | 300 to 3000 | ≤ 300 |
| Cc1ncccc1Nc1cc(-c2c(C)noc2C)cc2[nH]c(=O)n(C)c12 [Example Compound 27, 5-(3,5-dimethylisoxazol-4-yl)-1-methyl-7-((2-methylpyridin-3-yl)amino)-1H-benzo[d]imidazol-2(3H)-one] | 300 to 3000 | – | ≤ 300 | ≤ 300 | ≤ 300 |
| Cc1ccc(C(N)=O)cc1-c1cc(-c2c(C)noc2C)cc2[nH]c(=O)n(C)c12 [Example Compound 29, 3-(6-(3,5-dimethylisoxazol-4-yl)-3-methyl-2-oxo-2,3-dihydro-1H-benzo[d]imidazol-4-yl)-4-methylbenzamide] | 300 to 3000 | – | ≤ 300 | 300 to 3000 | ≤ 300 |
| Cc1ncccc1Oc1cc(-c2c(C)noc2C)cc2[nH]c(=O)n(C)c12 [Example Compound 31, 5-(3,5-dimethylisoxazol-4-yl)-1-methyl-7-((2-methylpyridin-3-yl)oxy)-1H-benzo[d]imidazol-2(3H)-one] | 300 to 3000 | – | ≤ 300 | ≤ 300 | 300 to 3000 |
| Cc1n[nH]c(C)c1-c1cc(-c2c(C)noc2CO)cc2[nH]c(=O)n(C)c12 [Example Compound 32, 7-(3,5-dimethyl-1H-pyrazol-4-yl)-5-(5-(hydroxymethyl)-3-methylisoxazol-4-yl)-1-methyl-1H-benzo[d]imidazol-2(3H)-one] | 300 to 3000 | – | ≤ 300 | ≤ 300 | ≤ 300 |
| Cc1noc(C)c1Nc1cc(-c2c(C)noc2C)cc2[nH]c(=O)n(C)c12 [Example Compound 33, 5-(3,5-dimethylisoxazol-4-yl)-7-((3,5-dimethylisoxazol-4-yl)amino)-1-methyl-1H-benzo[d]imidazol-2(3H)-one] | 300 to 3000 | – | ≤ 300 | 300 to 3000 | ≤ 300 |
| Cc1noc(C)c1-c1cc(-c2cccc3ccccc23)c2c(c1)[nH]c(=O)n2C [Example Compound 34, 5-(3,5-dimethylisoxazol-4-yl)-1-methyl-7-(naphthalen-1-yl)-1H-benzo[d]imidazol-2(3H)-one] | 300 to 3000 | – | ≤ 300 | ≤ 300 | ≤ 300 |
| Cc1cnccc1-c1cc(-c2c(C)noc2C)cc2[nH]c(=O)n(C)c12 [Example Compound 38, 5-(3,5-dimethylisoxazol-4-yl)-1-methyl-7-(3-methylpyridin-4-yl)-1H-benzo[d]imidazol-2(3H)-one] | 300 to 3000 | – | ≤ 300 | 300 to 3000 | 300 to 3000 |
| Cc1cncc(C)c1-c1cc(-c2c(C)noc2C)cc2[nH]c(=O)n(C)c12 [Example Compound 39, 5-(3,5-dimethylisoxazol-4-yl)-7-(3,5-dimethylpyridin-4-yl)-1-methyl-1H-benzo[d]imidazol-2(3H)-one] | 300 to 3000 | – | ≤ 300 | ≤ 300 | ≤ 300 |
| Cc1ccccc1-c1cc(-c2c(C)noc2C)cc2[nH]c(=O)n(C)c12 [Example Compound 40, 5-(3,5-dimethylisoxazol-4-yl)-1-methyl-7-(o-tolyl)-1H-benzo[d]imidazol-2(3H)-one] | 300 to 3000 | – | ≤ 300 | 300 to 3000 | ≤ 300 |
| Cc1nc(C)c(-c2cc(-c3c(C)noc3C)cc3[nH]c(=O)n(C)c23)s1 [Example Compound 44, 5-(3,5-dimethylisoxazol-4-yl)-7-(2,4-dimethylthiazol-5-yl)-1-methyl-1H-benzo[d]imidazol-2(3H)-one] | 3000 to 30000 | – | 300 to 3000 | 300 to 3000 | 300 to 3000 |
| COc1nc(C)ccc1-c1cc(-c2c(C)noc2C)cc2[nH]c(=O)n(C)c12 [Example Compound 45, 5-(3,5-dimethylisoxazol-4-yl)-7-(2-methoxy-6-methylpyridin-3-yl)-1-methyl-1H-benzo[d]imidazol-2(3H)-one] | 300 to 3000 | – | 300 to 3000 | 300 to 3000 | ≤ 300 |
